In assay [1] the target is Tyrosine-protein kinase JAK1 (Homo sapiens, UniProt P23458). The assay is described as follows: Jak1 Kinase Activity Test In Vitro. On the procedure:
JAK1(h) was incubated with 20 mM Tris/HCl pH 7.5, 0.2 mM EDTA, 500 μM MGEEPLYWSFPAKKK (SEQ ID NO: 1), 10 mM magnesium acetate and [γ-33P]-ATP (activity and concentration were determined as required). The reaction was started by adding the Mg/ATP mixture, and after incubation at room temperature for 40 min, the reaction was terminated by adding 0.5% phosphoric acid. Then 10 μL of the reaction product was spotted on a P30 filter pad which was washed three times with 0.425% phosphoric acid and once with methanol within 4 min, dried, and subjected to scintillation counting.

Assay [2] concerns the target T1, Tyrosine-protein kinase JAK3 (Homo sapiens, UniProt P52333).
T1 sequence (P52333 whole entry): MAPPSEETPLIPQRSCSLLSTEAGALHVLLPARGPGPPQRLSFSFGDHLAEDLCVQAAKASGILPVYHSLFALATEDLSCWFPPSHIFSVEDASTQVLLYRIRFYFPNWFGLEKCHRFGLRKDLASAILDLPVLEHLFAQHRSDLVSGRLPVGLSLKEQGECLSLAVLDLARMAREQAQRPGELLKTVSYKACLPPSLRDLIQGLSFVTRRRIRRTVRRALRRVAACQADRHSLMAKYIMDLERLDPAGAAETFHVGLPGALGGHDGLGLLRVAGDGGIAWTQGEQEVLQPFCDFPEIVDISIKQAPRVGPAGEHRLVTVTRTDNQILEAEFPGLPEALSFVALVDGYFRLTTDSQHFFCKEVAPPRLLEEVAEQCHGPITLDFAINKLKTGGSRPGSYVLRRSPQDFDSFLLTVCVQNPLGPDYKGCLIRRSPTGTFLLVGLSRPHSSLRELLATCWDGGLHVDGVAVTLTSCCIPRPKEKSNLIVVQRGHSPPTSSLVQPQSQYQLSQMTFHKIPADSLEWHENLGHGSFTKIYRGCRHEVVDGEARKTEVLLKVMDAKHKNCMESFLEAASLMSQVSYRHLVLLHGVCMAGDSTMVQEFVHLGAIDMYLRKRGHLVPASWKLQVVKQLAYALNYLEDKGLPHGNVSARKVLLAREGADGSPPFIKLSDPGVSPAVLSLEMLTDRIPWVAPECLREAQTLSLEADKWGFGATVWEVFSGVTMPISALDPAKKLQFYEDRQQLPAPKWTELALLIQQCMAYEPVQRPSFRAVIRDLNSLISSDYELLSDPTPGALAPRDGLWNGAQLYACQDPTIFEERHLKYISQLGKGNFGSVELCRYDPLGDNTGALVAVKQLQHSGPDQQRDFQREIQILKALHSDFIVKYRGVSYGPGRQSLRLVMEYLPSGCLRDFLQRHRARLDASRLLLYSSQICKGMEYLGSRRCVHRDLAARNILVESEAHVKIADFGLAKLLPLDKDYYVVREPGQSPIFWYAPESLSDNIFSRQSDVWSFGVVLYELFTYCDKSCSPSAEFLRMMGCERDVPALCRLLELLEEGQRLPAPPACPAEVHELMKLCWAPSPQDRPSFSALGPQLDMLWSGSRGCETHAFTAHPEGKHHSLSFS
Nature of the assay: Jak3 Kinase Activity Test In Vitro. On the procedure: JAK3(h) was incubated with 8 mM MOPS pH 7.0, 0.2 mM EDTA, 500 μM GGEEEEYFELVKKKK (SEQ ID NO: 3), 10 mM magnesium acetate, and [γ-33P]-ATP (activity and concentration were determined as required). The reaction was started by adding the Mg/ATP mixture, and after incubation at room temperature for 40 min, the reaction was terminated by adding 0.5% phosphoric acid. Then 10 μL of the reaction product was spotted on a P30 filter pad which was washed three times with 0.425% phosphoric acid and once with methanol within 4 min, dried, and subjected to scintillation counting.

For assay [3], the target named is Non-receptor tyrosine-protein kinase TYK2 (Homo sapiens, UniProt P29597). The assay is described as follows: TYK2 Kinase Activity Test In Vitro. The method, then: TYK2(h) was incubated with 8 mM MOPS pH 7.0, 0.2 mM EDTA, 250 μM GGMEDIYFEFMGGKKK (SEQ ID NO: 4), 10 mM magnesium acetate, and [γ-33P]-ATP (activity and concentration were determined as required). The reaction was started by adding the Mg/ATP mixture, and after incubation at room temperature for 40 min, the reaction was terminated by adding 0.5% phosphoric acid. Then 10 μL of the reaction product was spotted on a P30 filter pad which was washed three times with 0.425% phosphoric acid and once with methanol within 4 min, dried, and subjected to scintillation counting.
Chain of Non-receptor tyrosine-protein kinase TYK2 (P29597 whole entry): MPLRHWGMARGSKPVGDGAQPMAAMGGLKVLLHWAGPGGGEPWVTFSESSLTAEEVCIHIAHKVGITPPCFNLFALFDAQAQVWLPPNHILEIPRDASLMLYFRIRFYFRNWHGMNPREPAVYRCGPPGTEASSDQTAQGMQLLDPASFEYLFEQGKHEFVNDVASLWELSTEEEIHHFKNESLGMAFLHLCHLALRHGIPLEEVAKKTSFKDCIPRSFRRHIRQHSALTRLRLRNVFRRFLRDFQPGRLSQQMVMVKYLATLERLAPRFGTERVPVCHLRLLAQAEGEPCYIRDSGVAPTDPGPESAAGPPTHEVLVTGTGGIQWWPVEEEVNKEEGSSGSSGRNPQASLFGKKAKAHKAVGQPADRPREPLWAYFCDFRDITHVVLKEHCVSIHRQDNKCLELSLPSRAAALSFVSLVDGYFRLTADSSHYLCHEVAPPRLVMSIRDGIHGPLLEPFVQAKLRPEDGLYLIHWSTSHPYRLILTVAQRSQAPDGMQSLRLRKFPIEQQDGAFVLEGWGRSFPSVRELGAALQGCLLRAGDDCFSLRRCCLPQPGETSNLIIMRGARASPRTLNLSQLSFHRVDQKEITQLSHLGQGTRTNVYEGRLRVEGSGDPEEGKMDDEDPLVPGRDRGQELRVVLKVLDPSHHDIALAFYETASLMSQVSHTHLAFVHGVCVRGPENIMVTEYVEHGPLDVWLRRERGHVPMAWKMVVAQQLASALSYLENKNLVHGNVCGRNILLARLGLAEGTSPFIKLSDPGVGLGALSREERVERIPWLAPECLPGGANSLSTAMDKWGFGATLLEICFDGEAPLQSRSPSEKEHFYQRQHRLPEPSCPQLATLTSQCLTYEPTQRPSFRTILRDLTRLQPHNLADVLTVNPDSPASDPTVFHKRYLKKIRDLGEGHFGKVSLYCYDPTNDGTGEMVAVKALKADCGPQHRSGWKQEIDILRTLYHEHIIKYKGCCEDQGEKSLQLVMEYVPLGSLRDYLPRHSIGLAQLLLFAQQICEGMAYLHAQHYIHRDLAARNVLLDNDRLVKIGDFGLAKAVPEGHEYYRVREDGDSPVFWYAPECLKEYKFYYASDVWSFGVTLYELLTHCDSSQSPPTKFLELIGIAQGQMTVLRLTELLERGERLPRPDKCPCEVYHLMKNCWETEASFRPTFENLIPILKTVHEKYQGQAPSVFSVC

The target of assay [4] is Tyrosine-protein kinase JAK2 (Homo sapiens, UniProt O60674). The assay is described as follows: Jak2 Kinase Activity Test In Vitro. The method, then:
JAK2(h) was incubated with 8 mM MOPS pH 7.0, 0.2 mM EDTA, 100 μM […] (SEQ ID NO: 2), 10 mM magnesium acetate, and [γ-33P]-ATP (activity and concentration were determined as required). The reaction was started by adding the Mg/ATP mixture, and after incubation at room temperature for 40 min, the reaction was terminated by adding 0.5% phosphoric acid. Then 10 μL of the reaction product was spotted on a P30 filter pad which was washed three times with 0.425% phosphoric acid and once with methanol within 4 min, dried, and subjected to scintillation counting.

SMILES strings stand for the structures.

Chain of Tyrosine-protein kinase JAK2 (O60674 whole entry): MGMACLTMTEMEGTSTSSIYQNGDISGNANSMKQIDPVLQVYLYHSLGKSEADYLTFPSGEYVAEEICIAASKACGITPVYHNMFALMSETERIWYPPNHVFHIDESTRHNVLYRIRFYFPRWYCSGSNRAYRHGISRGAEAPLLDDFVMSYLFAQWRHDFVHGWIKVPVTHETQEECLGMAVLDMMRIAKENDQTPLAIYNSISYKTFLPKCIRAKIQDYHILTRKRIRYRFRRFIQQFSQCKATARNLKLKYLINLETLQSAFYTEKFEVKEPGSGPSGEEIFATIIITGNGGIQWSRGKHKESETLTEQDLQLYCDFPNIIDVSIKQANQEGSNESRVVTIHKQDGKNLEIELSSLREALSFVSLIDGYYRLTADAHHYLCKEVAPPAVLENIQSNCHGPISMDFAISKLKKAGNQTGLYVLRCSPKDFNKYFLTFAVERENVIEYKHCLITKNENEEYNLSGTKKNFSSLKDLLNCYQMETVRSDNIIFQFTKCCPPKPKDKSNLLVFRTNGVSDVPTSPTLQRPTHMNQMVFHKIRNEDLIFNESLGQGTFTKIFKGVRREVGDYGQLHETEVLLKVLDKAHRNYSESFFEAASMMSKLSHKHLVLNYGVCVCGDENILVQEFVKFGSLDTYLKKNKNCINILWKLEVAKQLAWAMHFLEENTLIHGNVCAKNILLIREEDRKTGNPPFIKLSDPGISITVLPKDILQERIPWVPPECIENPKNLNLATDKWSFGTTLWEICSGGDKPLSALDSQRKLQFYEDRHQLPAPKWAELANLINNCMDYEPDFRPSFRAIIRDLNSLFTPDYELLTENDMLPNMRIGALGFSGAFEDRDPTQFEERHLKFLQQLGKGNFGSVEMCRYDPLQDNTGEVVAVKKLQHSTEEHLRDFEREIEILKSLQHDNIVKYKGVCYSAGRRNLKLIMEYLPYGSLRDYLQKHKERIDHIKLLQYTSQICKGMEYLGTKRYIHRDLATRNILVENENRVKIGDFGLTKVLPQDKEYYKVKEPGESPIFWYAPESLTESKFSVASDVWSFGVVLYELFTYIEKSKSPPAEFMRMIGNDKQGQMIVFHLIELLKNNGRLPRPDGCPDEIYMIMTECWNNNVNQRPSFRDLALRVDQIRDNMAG
Chain of Tyrosine-protein kinase JAK1 (P23458 whole entry): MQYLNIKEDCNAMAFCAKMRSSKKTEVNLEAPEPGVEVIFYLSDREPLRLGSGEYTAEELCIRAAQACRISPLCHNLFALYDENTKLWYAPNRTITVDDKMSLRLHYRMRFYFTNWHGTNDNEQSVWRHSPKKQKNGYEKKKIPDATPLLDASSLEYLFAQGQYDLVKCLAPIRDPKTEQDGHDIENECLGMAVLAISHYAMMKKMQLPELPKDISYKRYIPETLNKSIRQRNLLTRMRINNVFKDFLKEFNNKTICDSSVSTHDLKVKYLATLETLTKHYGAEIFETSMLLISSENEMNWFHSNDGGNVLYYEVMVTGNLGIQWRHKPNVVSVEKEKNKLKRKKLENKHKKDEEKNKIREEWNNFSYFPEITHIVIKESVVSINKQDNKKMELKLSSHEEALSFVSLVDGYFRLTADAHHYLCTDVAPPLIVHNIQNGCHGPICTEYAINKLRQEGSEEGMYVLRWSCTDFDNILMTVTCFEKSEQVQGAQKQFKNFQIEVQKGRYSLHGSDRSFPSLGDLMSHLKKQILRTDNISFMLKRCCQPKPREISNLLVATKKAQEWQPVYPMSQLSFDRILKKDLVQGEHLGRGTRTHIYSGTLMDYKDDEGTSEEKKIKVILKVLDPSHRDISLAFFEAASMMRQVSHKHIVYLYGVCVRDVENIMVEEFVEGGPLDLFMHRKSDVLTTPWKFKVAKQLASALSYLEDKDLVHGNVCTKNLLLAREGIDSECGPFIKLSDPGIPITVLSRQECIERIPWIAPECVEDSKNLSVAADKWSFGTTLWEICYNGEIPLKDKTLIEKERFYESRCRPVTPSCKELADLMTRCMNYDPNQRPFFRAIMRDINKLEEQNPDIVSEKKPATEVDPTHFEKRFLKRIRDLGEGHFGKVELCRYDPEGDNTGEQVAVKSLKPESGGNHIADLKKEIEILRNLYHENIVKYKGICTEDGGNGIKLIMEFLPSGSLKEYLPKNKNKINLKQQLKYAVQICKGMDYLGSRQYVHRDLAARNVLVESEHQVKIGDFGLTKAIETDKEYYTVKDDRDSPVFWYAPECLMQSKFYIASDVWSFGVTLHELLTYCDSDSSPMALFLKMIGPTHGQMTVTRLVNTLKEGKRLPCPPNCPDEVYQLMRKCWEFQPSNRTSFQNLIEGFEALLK

Regarding `Cn1cc(-c2cn3nccc3c(-c3cnn([C@]4(CC#N)CC5(C[C@@H](C#N)C5)C4)c3)n2)cn1` (some centres undefined) [US20250011332, Compound 2], the IC50 in assay [1] was found to be 0.123 µM; in assay [2], 0.48 µM; in assay [3], 0.002 µM.

Consider `Cn1cc(-c2cn3nccc3c(-c3cnn([C@]4(CC#N)CC5(C[C@@H](C#N)C5)C4)c3)n2)cn1` (some centres undefined) [US20250011332, Compound 4], for which, in assay [3], the IC50 turned out to be 0.02 µM.

As for `Cn1ccc(-c2cn3nccc3c(-c3cnn(C4(CC#N)CC5(CCN(C#N)C5)C4)c3)n2)n1` (centres undefined) [US20250011332, Compound 10], the 50% inhibitory concentration (IC50) in assay [1] is 0.281 µM; in assay [4], 0.033 µM; in assay [2], at least 10 µM; in assay [3], 0.03 µM.

As to `Cn1ccc(-c2cn3nccc3c(-c3cnn([C@]4(CC#N)CC5(CC[C@@H](C#N)CC5)C4)c3)n2)n1` (some centres undefined) [US20250011332, Compound 12], the IC50 stood at 0.122 µM in assay [1], 0.138 µM in assay [4], 7.74 µM in assay [2] and 0.006 µM in assay [3].

As to `Cn1ccc(-c2cn3nccc3c(-c3cnn([C@]4(CC#N)CC5(CC[C@@H](C#N)CC5)C4)c3)n2)n1` (some centres undefined) [US20250011332, Compound 13], the concentration for half-maximal inhibition (IC50) in assay [1] turned out to be 0.233 µM; in assay [4], 0.103 µM; in assay [2] it was 1.08 µM; in assay [3], 0.01 µM.

Take `Cn1cc(-c2cc(-c3cnn([C@]4(CC#N)CC5(C[C@H](C#N)C5)C4)c3)c3ccnn3c2)cn1` (some centres undefined) [US20250011332, Compound 17]: the concentration for half-maximal inhibition (IC50) in assay [1] was 0.229 µM; in assay [4], 0.028 µM; in assay [2], above 1 µM.

Regarding `Cn1ncc(-c2cn3nccc3c(-c3cnn([C@]4(CC#N)CC5(C[C@H](C#N)C5)C4)c3)n2)c1N` (some centres undefined) [US20250011332, Compound 18], the half-inhibitory concentration (IC50) is 0.012 µM in assay [1], 0.003 µM in assay [4] and 0.093 µM in assay [2].

Take `Cn1ncc(-c2cn3nccc3c(-c3cnn([C@]4(CC#N)CC5(C[C@H](C#N)C5)C4)c3)n2)c1N` (some centres undefined) [US20250011332, Compound 19]: the IC50 in assay [1] came out at 0.042 µM; in assay [4] it was 0.006 µM; in assay [2], 0.67 µM; in assay [3], 0.002 µM.

On to `N#CC[C@]1(n2cc(-c3nc(-c4cc(N)[nH]n4)cn4nccc34)cn2)CC2(C[C@@H](C#N)C2)C1` (some centres undefined) [US20250011332, Compound 20], for which the values for the IC50 in assay [1], in assay [2] and in assay [3] were 0.014 µM, 0.48 µM and 0.001 µM, respectively.

For the origin of these results see BindingDB's records for patent US20250011332 (Soter Biopharma, 2025).
